Results on 5 compounds are retold here after US20040142888A1, “Modulators of RabGGT and methods of use thereof” (priority 2002, published 2004).

As usually defined, the IC50 is the midpoint of a concentration-inhibition curve. The low end stands for greater potency, the high end for weaker potency. In general, IC90 refers to the concentration at which the effect reaches the 90% level. Lower therefore signals an effect from little substance.

Where two headings read alike, the source gives them in different places.

The test system of one data set is C. elegans germline. Description: Apoptosis in the C. elegans germline (apoptotic corpses per germline arm), after compound and/or RNAi treatment. It counts as in vivo. To be noted: wild-type worms, compound 1.5 mM. As to the method: The compounds were applied to early larval and adult C. elegans hermaphrodites by mixing a concentrated DMSO solution of the compound with heat-killed OP50 bacteria in a salt solution. The bacteria were then applied to agar plates and worms of the appropriate age seeded onto the plates. Compounds 7A, 7B, 7C, 7D, 7H, 7I and 7J were applied to worms at a final concentration of 1.5 mM. and the resulting visible phenotypes analyzed. The phenotype of apoptosis in C. elegans was quantified as follows: Germ cells in the C. elegans hermaphrodite gonad progress through various stages of differentiation to become mature ova. At the pachytene stage of meiotic prophase, some germ cells undergo programmed cell death (apoptosis) as part of normal development. The apoptotic corpses resulting from this process can be visualized by high-resolution Nomarski optics and are readily distinguishable cells to the trained eye from viable germ cells by their compact, button-like appearance. Necrotic cells, which are rarer, have a less compact appearance. Apoptosis is most reliably distinguished from necrosis, however, by its requirement for the core apoptotic machinery, such as a functional caspase/ced-3 gene. Since C. elegans has symmetrical anterior and posterior gonad structures, referred to as “arms”, apoptosis is scored by visually counting the apoptotic corpses present in a 1-2 day old adult in each germline arm. Normal, untreated worms rarely contain more than 2 corpses per arm. In a treated sample, the number of worms that contain more than 2 corpses provides a very accurate indicator of the apoptotic effect of the treatment. Early larval and adult C. elegans hermaphrodites were treated with compound and the phenotype of apoptosis in the germline arm was quantified as described in Example IV. DNA encoding GGTase alpha/[…].2 (GenBank entry NM-067966) and GGTase beta/B0280.1 (GenBank entry NM 066158) was amplified from a C. elegans genomic DNA template by PCR (Takara LA Taq DNA polymerase) using oligonucleotides containing gene-specific priming sequences that were flanked by sequences encoding the T7 polymerase priming site. The gene-specific priming sequences targeted the first 5 exons of B0280.1 (product size 2 kiloBases) and the first four exons of […].2 (product size 1 kiloBases). The PCR products were analyzed by gel electrophoresis to confirm that the correct product size was obtained. RNA was transcribed from the PCR product using the MEGAscript High Yield Transcription Kit (Ambion) according to manufacturer's instructions. Directly after transcription, the RNA was annealed by heating to 68° C. for 20 minutes. The double stranded RNA (dsRNA) was checked for product quality by gel electrophoresis. The dsRNA was then ethanol-precipitated, washed once with 100% ethanol and twice with 70% ethanol and the pellet was allowed to air dry for 30 minutes. The dsRNA was re-suspended in 1× IM buffer (20 mM KPO4, 3 mM potassium citrate, 2% PEG 6000) in volume equal to the original in vitro transcription reaction, and stored at -20° C. For RNAi treatment of worms, wild type animals at the L2/L3 stage of development were collected in M9 buffer at 50 animals/μl (M9 is 0.044 M KH2PO4, 0.085 M Na2HPO4, 0.18 M NaCl and 1 mM MgSO4). 1 μl of this nematode suspension was added to 3 μl of dsRNA and incubated for 24 hours in a sealed 96 well plate at 20° C. in a humidified chamber. Animals were allowed to develop to adulthood before compound treatment and/or assay of germline apoptosis as described in Example IV. Early larval and adult C. elegans hermaphrodites were treated with compound as described in Example IV. RNAi preparation and treatment was performed as described in Example VI. The phenotype of apoptosis in the germline arm was quantified as described in Example IV. Early larval and adult C. elegans hermaphrodites were treated with compound as described in Example IV. RNAi preparation and treatment was performed as described in Example VI. […]

Data set [1] deals with HCT-116 human colon tumor cells. Description: Compound-induced apoptosis in HCT-116 human colon tumor cells (microscopy for morphological markers). It counts as cell-based. As to the method:
HCT-116 human colon tumor cells obtained from the American Type Culture Collection (ATCC) were grown in McCoy's 5A culture medium with 10% heat inactivated FBS, 1× penicillin/streptomycin, and 25 mM HEPES, in an incubator maintained at 37° C. with CO2 at 6-7% and humidity at 95%. Cells were treated with compounds using a dose range from 0.04 μM to 100 μM. After 48 hours they were examined by microscopy for signs of cell rounding, vaccuolation, and nuclear condensation. These are morphological markers associated with apoptosis, and are consistent with results obtained by performing an assay for nucleosomal DNA, or a TdT-mediated dUTP nick end labeling (TUNEL) assay.
The concentrations cited are the minimal concentration required to induce these morphological changes in 50% of the treated cells.

Data set [2] concerns the target Farnesyl Transferase (FT) (Homo sapiens, UniProt P49354+P49356). Description: Biochemical assay for inhibition of farnesyl transferase (FT). As to the method:
Biochemical assays for inhibition of FT were performed as described by Mann et al. (1995, Drug Dev. Res. 34: 121) with the modifications described by Ding et al. (1999, J. Med. Chem., 42:5241)

A further data set has as its system HCT116 colon tumor. To be noted: HCT116 xenograft, 600 mg/kg orally once daily for ten doses, cited from earlier work.
[3] abbreviates: HCT-116, 48 h, HCT116 cells, 48 hours, minimal concentration inducing apoptotic morphological changes in 50% of treated cells, read-out: 50% APOPTOTIC
Where [4] appears, read: HCT-116, minimum concentration required to achieve apoptosis of 50% of the HCT116 cells (Table 7), read-out: HCT116 50% apoptosis.
Where [5] appears, read: HCT-116, minimum concentration required to achieve apoptosis of 50% of the HCT116 cells (Table 8), read-out: HCT116 50% apoptosis.

Consider `N#Cc1ccc2c(c1)CN(S(=O)(=O)N1CCCCC1)[C@H](Cc1ccccc1)CN2Cc1cnc[nH]1` [Compound 7B], for which, in the data set on C. elegans germline, the “% arms with >2 corpses” value was 92%; the “Corpses/germline arm, mean” value is given as 6.9; the “Frequency: germline arms with 0 apoptotic corpses” value turned out to be 0; the “Frequency: germline arms with 1 apoptotic corpse” value was 0. Moreover, in the data set with C. elegans germline, the “Frequency: germline arms with 2 apoptotic corpses” value came out at 1, the “Frequency: germline arms with 3 apoptotic corpses” value is reported as 1, the “Frequency: germline arms with 4 apoptotic corpses” value amounted to 0 and the “Frequency: germline arms with >4 apoptotic corpses” value turned out to be 10. The EC50 in data set [1] (setting [3]) came out at 370 nM. The EC50 in data set [1] (setting [4]) is 370 nM. Besides, the EC50 in data set [1] (setting [5]) was 370 nM. In data set [2], this compound registered an IC50 of 7.8 nM and an IC90 of 110 nM.

For the compound `CCCS(=O)(=O)N1Cc2cc(C#N)ccc2N(Cc2cnc[nH]2)C[C@H]1Cc1ccccc1` [Compound 7H], in the data set with C. elegans germline, the “% arms with >2 corpses” value is reported as 29%; the “Corpses/germline arm, mean” value is on record as 1.6; the “Frequency: germline arms with 0 apoptotic corpses” value is 5; the “Frequency: germline arms with 1 apoptotic corpse” value is recorded as 4. In the data set with C. elegans germline, the “Frequency: germline arms with 3 apoptotic corpses” value is 3, the “Frequency: germline arms with 4 apoptotic corpses” value worked out at 2, the “Frequency: germline arms with >4 apoptotic corpses” value stood at 0 and the “effect on mean number of apoptotic corpses in the germline” value (shortened to “effect on mean number”) is reported as “increasing the mean number of apoptotic corpses in the germline”. Besides, the EC50 in data set [1] (setting [3]) is 370 nM. For the same compound, the EC50 in data set [1] (setting [4]) is 370 nM. Also, in data set [1] (setting [5]), the EC50 came to 370 nM. Further, in the data set with HCT116 colon tumor, the “death attributed to drug related toxicity (among eight mice treated)” value is given as “one”. The “mice that experienced cure of the tumor (among eight mice treated)” value in the data set on HCT116 colon tumor (cure = no mass larger than 35 mg) is listed as “seven”. Moreover, in data set [2], the half-maximal inhibitory concentration (IC50) was found to be 4.1 nM and the IC90 amounted to 360 nM.

Take `Cn1cncc1CN1C[C@@H](Cc2ccccc2)N(S(=O)(=O)c2cccs2)Cc2cc(C#N)ccc21` [Compound 7J]: in the data set with C. elegans germline, the “% arms with >2 corpses” value is 59%; the “Corpses/germline arm, mean” value turned out to be 2.8; the “Frequency: germline arms with 0 apoptotic corpses” value is on record as 3; the “Frequency: germline arms with 1 apoptotic corpse” value was 4. Also, in the data set with C. elegans germline, the “Frequency: germline arms with 2 apoptotic corpses” value was found to be 1, the “Frequency: germline arms with 3 apoptotic corpses” value came out at 4, the “Frequency: germline arms with 4 apoptotic corpses” value came out at 4 and the “Frequency: germline arms with >4 apoptotic corpses” value came out at 3. Also, in the data set on C. elegans germline, the “effect on mean number” value is on record as “increasing the mean number of apoptotic corpses in the germline”. For the same compound, in data set [1] (setting [3]), the EC50 came out at 2500 nM. In addition, the EC50 in data set [1] (setting [4]) was determined as 2500 nM. For the same compound, the EC50 in data set [1] (setting [5]) came to 2500 nM. Besides, in data set [2], the IC50 turned out to be 0.8 nM and the IC90 amounted to 7 nM.

Regarding `COc1ccc(S(=O)(=O)N2Cc3cc(C#N)ccc3N(Cc3cnc[nH]3)C[C@H]2Cc2ccccc2)cc1` [Compound 7A], in the data set on C. elegans germline, the “% arms with >2 corpses” value is given as 36%; the “Corpses/germline arm, mean” value turned out to be 2.0; the “Frequency: germline arms with 0 apoptotic corpses” value is 1; the “Frequency: germline arms with 1 apoptotic corpse” value turned out to be 4. Also, in the data set with C. elegans germline, the “Frequency: germline arms with 2 apoptotic corpses” value amounted to 2, the “Frequency: germline arms with 3 apoptotic corpses” value was found to be 3, the “Frequency: germline arms with 4 apoptotic corpses” value was found to be 0 and the “Frequency: germline arms with >4 apoptotic corpses” value turned out to be 1. In addition, the “effect on mean number” value in the data set with C. elegans germline is given as “increasing the mean number of apoptotic corpses in the germline”. For the same compound, the EC50 in data set [1] (setting [3]) was 3700 nM. The EC50 in data set [1] (setting [4]) amounted to 3300 nM. In addition, the EC50 in data set [1] (setting [5]) was 3300 nM. For the same compound, in data set [2], the IC50 is 2.4 nM and the IC90 came to 30 nM.

As to `COc1ccc(S(=O)(=O)N2Cc3cc(C#N)ccc3N(Cc3cncn3C)C[C@H]2Cc2ccccc2)cc1` [Compound 7I], in the data set on C. elegans germline, the “% arms with >2 corpses” value is listed as 33%; the “Corpses/germline arm, mean” value came to 2.3; the “Frequency: germline arms with 0 apoptotic corpses” value stood at 1; the “Frequency: germline arms with 1 apoptotic corpse” value was 3. Besides, in the data set on C. elegans germline, the “Frequency: germline arms with 2 apoptotic corpses” value amounted to 3, the “Frequency: germline arms with 3 apoptotic corpses” value came to 1, the “Frequency: germline arms with 4 apoptotic corpses” value is 2 and the “Frequency: germline arms with >4 apoptotic corpses” value is 1. Moreover, in the data set on C. elegans germline, the “effect on mean number” value is reported as “increasing the mean number of apoptotic corpses in the germline”. The EC50 in data set [1] (setting [3]) worked out at 40 nM. For the same compound, the EC50 in data set [1] (HCT-116, 48 h, HCT-116 cells, 48 hours, read-out: minimum effective concentration (apoptosis in 50% of cells)) came out at 40 nM. Moreover, the EC50 in data set [1] (setting [4]) was 40 nM. In data set [1] (setting [5]), the EC50 was 40 nM. Moreover, in data set [2], the IC50 came to 1.4 nM and it took 11 nM to reach the 90% level (IC90).
